Experimental data taken from patent EP0126849A1, “Pharmacologically active N-amino hydantoin derivatives, their synthesis and intermediates” (THE WELLCOME FOUNDATION LIMITED, priority 1983, dated 1984).
In brackets after ≈: the same amount, converted by molar mass. Read-outs that look alike come from different tables or passages of the source.

What was measured:
platelet aggregation = assay: Inhibition of platelet aggregation in human platelet-rich plasma (Born-type aggregometer, ADP or other aggregating agent); type: cell-based; conditions: for IC50 / Potency relative to PGI2: human PRP; for IC50: 1 min incubation at 37°C before aggregating agent; for Potency relative to PGI2: 1 min incubation, PGI2 = 1; for Increase on Incubation (min) 5: increase in potency after 5 min incubation in PRP
Experimental: Human blood was freshly collected into siliconized (Siloclad; Clay Adams) plastic (Sterilin Ltd.) vessels containing trisodium citrate (3.15%; 0.1 volume with 0.9 volume blood) and centrifuged (200 g for 15 min) at room temperature. The platelet-rich plasma (PRP) was withdrawn into plastic containers and kept at room temperature. Inhibition of […] prior to addition of sufficient adenosine diphosphate (ADP) or other aggregating agent to just cause a non-reversing control aggregation. Dose-inhibition curves were constructed for each compound and the ID50 (dose causing 50% inhibition) was calculated as the dose required to reduce the aggregation to 50% of its control amplitude. […] For comparison, also given are the results upon administration of 5-(6-carboxyhexyl)-1-(3-cyclohexyl-3-hydroxypropyl)hydantoin (Compound X) which is disclosed in UK Specification 1,595,694. -
In this and subsequent biological examples, where a compound number refers to a single diastereoisomer, a mixture of diastereoisomers is indicated by two compound numbers separated by /.

[1] = system: mean systemic arterial blood pressure (BP); assay: Cardiovascular actions in rats: fall in blood pressure and duration of the hypotensive effect; type: in vivo, male Wistar rats; conditions: for Fall in BP Relative Potency PGE1 / Fall in BP Relative Potency PGI2: anaesthetized rat, i.v. injection; for Fall in BP Relative Potency PGE1: potency ratio against PGE1; for Fall in BP Relative Potency PGI2: potency ratio against PGI2; for Duration t½: time from peak hypotensive response to recovery to half its peak, rat i.v.
Experimental: Anaesthesia was induced in male Wistar rats (250-300 g body weight) with sodium pentobarbitone (30 mg kg^-1, i.v.) and supplemented (3 mg kg^-1) when required. Arterial pressure was recorded from a cannulated femoral artery and heart rate derived from the arterial pulse. Rectal temperature was maintained at 37°C by thermistor-controlled radiant heat. Each compound was injected into a femoral vein in a volume of 0.25 ml and flushed in with 0.2 ml of saline (0.9% w/v). Dose-response relationships for the fall in mean systemic arterial blood pressure (BP) with the hydantoins were constructed and compared to those obtained with PGI2 and PGE, in the same animal, and a potency ratio calculated. […] Figures for Compound X and PGI2 are listed for comparison.

B.P. = assay: Cardiovascular studies in the dog: vasodepressor potency and duration; type: in vivo, Dogs; conditions: i.v. bolus
Experimental: Dogs (10-15 kg body weight) were anaesthetized with chloralose (80 mg/kg i.v.) and maintained with subcutaneous injections of pentobarbitone (3 mg/kg). Drugs were administered via a femoral vein by bolus injection and B.P. was recorded from the right femoral artery. Results give vasodepressor potency and t1 2 duration. Figures for Compound X are provided for comparison.

[2] = system: acid-ethanol induced gastric lesions; assay: Inhibition of acid-ethanol induced gastric lesions in rats (cytoprotection); type: in vivo; conditions: rat, oral
Experimental: The inhibition of acid-ethanol induced gastric lesions in rats (cytoprotection) was measured for various doses of orally administered hydantoin. Figures for compound X are given for comparison.

[3] = Homo sapiens, Platelet, 1 min, read-out: IC50

Row | Structure (SMILES) | IC50 (platelet aggregation; [3]) | Increase on Incubation (min) 5 (platelet aggregation) | IC50 (platelet aggregation) | Potency relative to PGI2 (platelet aggregation) | Fall in BP Relative Potency PGE1 [1] | Fall in BP Relative Potency PGI2 [1] | Duration t½ [1] | Δ BP (B.P.; Dose 0.625 ug kg^-1) | t1/2 (B.P.; Dose 0.625 ug kg^-1, duration of vasodepressor effect) | Δ BP (B.P.; Dose 1.25 ug kg^-1) | t1/2 (B.P.; Dose 1.25 ug kg^-1, duration of vasodepressor effect) | % inhibition ([2]; Dose 50 μg kg^-1) | % inhibition ([2]; Dose 10 μg kg^-1) | % inhibition ([2]; Dose 25 μg kg^-1)
1 | O=C(O)CCCCCCC1C(=O)NC(=O)N1N=CC(O)c1ccccc1 (single isomer, unassigned) [Compound No. 11, 5-(6-carboxyhexyl)-1-(2-hydroxy-2-phenylethylldeneamino)hydantoln] | 1 ng/mL (≈ 0.00277 µM) | x8 |  | 0.53 | 1.1 | 0.1 | 16.0 min |  |  |  |  |  |  | 
2 | CCOC(=O)CCCCCCC1C(=O)NC(=O)N1N=CC(OC(C)=O)C1CCCCC1 (stereo not drawn) [4/5, 1-(2-acetoxy-2-cyclohexylethylideneamino)-5-(6-ethoxycarbonylhexyl)hydantoin] |  |  |  |  |  |  |  |  |  |  |  | 90 ± 6% |  | 
3 | CCCCCC(O)C=NN1C(=O)NC(=O)C1CCCCCCC(=O)O (stereo not drawn) [17/18, 5-(6-carboxyhexyl)-1-(2-hydroxyheptylideneamino)hydantoin] |  | x2 | 8 ngml^-1 | 0.12 | 0.48 | 0.04 | 10 to 19 min |  |  |  |  |  |  | 
4 | O=C(O)CCCCCCC1C(=O)NC(=O)N1N=CC(O)Cc1ccccc1 (stereo not drawn) [23/24, 5-(6-carboxyhexyl)-1-(2-hydroxy-3-phenylpropylideneamino)hydantoin] |  |  |  |  |  |  |  |  |  |  |  |  | 55 ± 15% | 
5 | O=C(O)CCCCCCC1C(=O)NC(=O)N1NCC(O)c1ccccc1 (stereo not drawn) [33/34, 5-(6-carboxyhexyl)-1-(2-hydroxy-2-phenylethylamino) hydantoin] |  | x2 | 6 ngml^-1 | 0.17 | 0.24 | 0.02 | 6 min |  |  |  |  |  |  | 
6 | CCCCCC(O)C=NN1C(=O)NC(=O)C1CCCCCCC(=O)O (stereo not drawn) [Compound No. 17, 5-(6-carboxyhexyl)-1-(2-hydroxyheptylideneamino)hydantoin] |  | x2 | 131 ngml^-1 | 0.01 | 0.12 | 0.01 | 3.5 min |  |  |  |  |  |  | 
7 | O=C(O)CCCCCCC1C(=O)NC(=O)N1NCC(O)c1ccccc1 (stereo not drawn) [Compound No. 33, 5-(6-carboxyhexyl)-1-(2-hydroxy-2-phenylethylamino)hydantoin] |  | x2 | 5.3 ngml^-1 | 0.07 |  |  |  |  |  |  |  |  |  | 
8 | O=C(O)CCCCCCC1C(=O)NC(=O)N1NCC(O)c1ccccc1 (stereo not drawn) [Compound No. 34, 5-(6-carboxyhexyl)-1-(2-hydroxy-2-phenylethylamino)hydantoin] |  |  | 175 ngml^-1 | 0.003 |  |  |  |  |  |  |  |  |  | 

Second part, led by results:

Row | IC50 (platelet aggregation; [3]) | Increase on Incubation (min) 5 (platelet aggregation) | IC50 (platelet aggregation) | Structure (SMILES) | Potency relative to PGI2 (platelet aggregation) | Fall in BP Relative Potency PGE1 [1] | Fall in BP Relative Potency PGI2 [1] | Duration t½ [1] | Δ BP (B.P.; Dose 0.625 ug kg^-1) | t1/2 (B.P.; Dose 0.625 ug kg^-1, duration of vasodepressor effect) | Δ BP (B.P.; Dose 1.25 ug kg^-1) | t1/2 (B.P.; Dose 1.25 ug kg^-1, duration of vasodepressor effect) | % inhibition ([2]; Dose 50 μg kg^-1) | % inhibition ([2]; Dose 10 μg kg^-1) | % inhibition ([2]; Dose 25 μg kg^-1)
9 | 12.7 ng/mL (≈ 0.0355 µM) | x1.5 |  | CCCCCC(O)CNN1C(=O)NC(=O)C1CCCCCCC(=O)O (single isomer, unassigned) [Compound No. 35, 5-(6-carboxyhexyl)-I-(2-hydroxyheptylamino)hydantoin] | 0.05 |  | 0.01 | 1.3 min |  |  |  |  |  |  | 
10 | 6 ng/mL (≈ 0.0162 µM) | x7 |  | O=C(O)CCCCCCC1C(=O)NC(=O)N1NCC(O)C1CCCCC1 (single isomer, unassigned) [compound 29, 5-(6-carboxyhexyl)-1-(2-cyclohexyl-2-hydroxyethylamino)hydantoln] | 0.16 | 0.24 | 0.02 | 37 min | -26 mm Hg | >30 min | -51 mm Hg | >60 min |  |  | 
11 | 13 ng/mL (≈ 0.0341 µM) | x6 |  | CN1C(=O)C(CCCCCCC(=O)O)N(N=CC(O)C2CCCCC2)C1=O (stereo not drawn) [25/26, 5-(6-carboxyhexyl)-1-(2-cyclohexyl-2-hydroxyethylideneamino)-3-methylhydantoin] | 0.06 | 1.08 | 0.09 | 9 min |  |  |  |  |  |  | 
12 | 1.27 ng/mL (≈ 0.00355 µM) | x1.5 |  | CCCCCC(O)CNN1C(=O)NC(=O)C1CCCCCCC(=O)O (stereo not drawn) [35/36, 5-(6-carboxyhexyl)-1-(2-hydroxyheptylamino)hydantoin] | 0.49 |  | 0.06 | 0.1 min |  |  |  |  |  |  | 
13 | 3 ng/mL (≈ 0.00782 µM) | x7 |  | CN1C(=O)C(CCCCCCC(=O)O)N(NCC(O)C2CCCCC2)C1=O (stereo not drawn) [37/38] | 0.18 | 0.36 | 0.03 | 17 min |  |  |  |  |  | 71 ± 7% | 
14 | 0.9 ng/mL (≈ 0.00244 µM) | x6 |  | O=C(O)CCCCCCC1C(=O)NC(=O)N1NCC(O)C1CCCCC1 (stereo not drawn) [Compound No. 30, 5-(6-carboxyhexyl)-1-(2-cyclohexyl-2-hydroxyethylamino) hydantoin] | 0.64 | 0.24 | 0.02 | 28 min |  |  |  |  |  |  | 65 ± 17%
15 | 24 ng/mL (≈ 0.0683 µM) |  |  | O=C(O)CCCCCCC1C(=O)NC(=O)N1N=CCC1CCCCC1 (stereo not drawn) [compound 8, 5-(6-carboxyhexyl)-1-(2-cyclahexylethylideneamino) hydantoin] | 0.05 | 0.11 | 0.01 | 1.0 min |  |  |  |  | 76 ± 11% |  | 71 ± 6%
